Reference: patent publication US9649314B2, “Pyrimido[4,5-b]quinoline-4,5(3H,10H)-diones” (NOVARTIS AG, priority 2012, dated 2017)
Like-named read-outs stand apart in the source and are kept apart here.

Experiments:
CFTR-Y122X = CFTR-Y122X assay (dual reporter isogenic Hek293 cell lines, Renilla luminescence readthrough); type: cell-based; details: Homo sapiens, HEK293
Procedure, shortened: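 Stable isogenic HEK dual-reporter line (eGFP–CFTR Y122X TGA PTC–myc–Renilla); 2000 cells/well, 24 h, then compound (10 μM; tested up to 100 μM) 24 h at 37 °C. Renilla luminescence normalised to neutral (0%) and 14 mM paromomycin (100%); wildtype construct counterscreen.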

[1] = tested on: human coagulation factor F9 containing the R29X (TAG) mutation; assay: F9-R29X assay (full length F9 expression in isogenic HekR4 cells, imaging / F9 ELISA); type: cell-based; details: nonsense mutation suppression; for AC50: Homo sapiens
Protocol: Activity of compounds of the present invention was examined using reporter constructs of full length human coagulation factor F9 containing the R29X (TAG) mutation known from hemophilia B patients (“F9-R29X assay”). Full length F9 cDNA was stably expressed in the above isogenic HekR4 cell background. Stop codon readthrough and full length F9 expression was determined with a miniaturized confocal high throughput imaging assay. In paraformaldehyde fixed and permeabilized cells (10 uM compound; 24 h incubation) F9 expression was identified with a commercial F9 antibody raised against the F9 C-terminus. […] F9 staining intensity (Alexa-Fluor 488) and Draq5 nuclear staining served as readout for data calculation. Percent activity was measured in comparison to high (active control) and low controls (DMSO solvent).

α-L-iduronidase Q70X = assay: α-L-iduronidase-Q70X assay (restored enzyme activity in cell lysates, 4-MU iduronide substrate); type: cell-based, human; details: 48 h treatment; for Q70X Amax [%]: paromomycin 14 mM as reference control; for AC50: Homo sapiens
Protocol: (§1) Activity of compounds of the present invention was examined using a functional readout for two clinically common stop codon (TAG) mutants (Q70X, W402X) of the lysosomal enzyme α-L-iduronidase. Lack of α-L-iduronidase expression in such stop codon patients leads to the lysosomal storage disorder Mucopolysaccharidosis I (MPSI) also called Hurler syndrome.
(§2) Reporter constructs analogous to constructs above were expressed. In the assay, 2500 cells/well were treated for 48 h with compound, washed with PBS and lysed (0.4 M Sodiumformate, 0.1% NaN3, 0.9% NaCl, 0.2% Triton, pH 3.5). Restored α-L-iduronidase activity in cell lysates was measured with the fluoresecent 4-MU iduronide substrate (4 Methylumbelliferyl α-L-iduronide) after 45 min incubation. Again, paromomycin was used as reference control (14 mM).

α-L-iduronidase W402X = assay: α-L-iduronidase-W402X assay (restored enzyme activity in cell lysates, 4-MU iduronide substrate); type: cell-based, human; details: 48 h treatment; for W402X Amax [%]: paromomycin 14 mM as reference control; for AC50: Homo sapiens
Protocol: as §1, §2

[2] = nonsense mutation suppression, 100% = 14 mM paromomycin, 24 h incubation, tested up to 100 μM, read-out: Amax [%]
[3] = nonsense mutation suppression, 24 h incubation

SMILES	Emax (CFTR-Y122X; [2]) [%]	AC50 (CFTR-Y122X; [3]) [nM]	AC50 [1] [nM]	Amax [%] [1] [%]	Q70X Amax [%] (α-L-iduronidase Q70X)	AC50 (α-L-iduronidase Q70X) [nM]	W402X Amax [%] (α-L-iduronidase W402X)	AC50 (α-L-iduronidase W402X) [nM]	Emax (CFTR-Y122X; at the above dose ranges (up to 100 μM), read-out: suppression, % of paromomycin reference activity) [%]
Cn1c2ccccc2c(=O)c2c(=O)n(C3CCCCC3)c(-c3ccco3)nc21 [Example 2.20, 3-cyclohexyl-2-(furan-2-yl)-10-methylpyrimido[4,5-b]quinoline-4,5(3H,10H)-dione]	201	2300	5500	158	386	1000	189	900	–
Cn1c2ccccc2c(=O)c2c(=O)n(C3CCCCC3)c(-c3cccs3)nc21 [Example 2.17, 3-cyclohexyl-10-methyl-2-(thiophen-2-yl)pyrimido[4,5-b]quinoline-4,5(3H,10H)-dione]	293	5800	5400	157	265	2100	211	2900	–
CCc1nc2c(c(=O)c3ccccc3n2C)c(=O)n1C1CCCCCC1 [Example 2.31, 3-cycloheptyl-2-ethyl-10-methylpyrimido[4,5-b]quinoline-4,5(3H,10H)-dione]	67	2500	1900	167	438	1700	300	2900	–
Cn1c2ccccc2c(=O)c2c(=O)n(C3CCCCC3)c(-c3ccc(Cl)cc3Cl)nc21 [3-cyclohexyl-2-(2,4-dichlorophenyl)-10-methylpyrimido[4,5-b]quinoline-4,5(3H,10H)-dione]	–	–	–	–	–	–	–	–	< 5
CC(C)c1nc2c(c(=O)c3cc(Br)ccc3n2C)c(=O)n1-c1ccccc1 [Example 1.25, 7-bromo-2-isopropyl-10-methyl-3-phenylpyrimido[4,5-b]quinoline-4,5(3H,10H)-dione]	68	19500	–	–	–	–	–	–	–
Cn1c2ccccc2c(=O)c2c(=O)n(C3CCCCC3)c(-c3ccccc3)nc21 [Example 2.16, 3-cyclohexyl-10-methyl-2-phenylpyrimido[4,5-b]quinoline-4,5(3H,10H)-dione]	312	8600	–	–	–	–	–	–	–
